Patent US12673975B2, “Cyclic peptide, cell scaffold material, cell separating material, and medium” (FUJIFILM Corporation, priority 2019, dated 2026)
Where two headings read alike, the source gives them in different places. Starred links: 1 amine or outer side, 2 acyl side, 3 side chain; linkers in the order of their positions; H or OH if unused. Positions of bridges follow the written chain, without caps; N, C: chain ends. Non-standard residues stand in square brackets, D forms with d. Residues, ends and D or L forms follow the SMILES beside them. hTyr = N[C@@H](CCc1ccc(O)cc1)C(=O)O; Pen = CC(C)(S)[C@H](N)C(=O)O; hCys = N[C@@H](CCS)C(=O)O; hSer = N[C@@H](CCO)C(=O)O; Dab = NCC[C@H](N)C(=O)O; Dap = NC[C@H](N)C(=O)O; X1 = O=C(C[*:2])[*:1]; X2 = O=C(C[*:1])[*:2]

Assays:
human integrin αvβ5 = human integrin αvβ5 (Homo sapiens, UniProt P06756+P18084); experiment: Evaluation of integrin binding property (surface plasmon resonance, Biacore 3000, immobilized cyclic peptide)
Method: A commercially available CMS (a carboxymethyl dextran introduction type, manufactured by GE Healthcare) sensor chip was set in Biacore 3000, which is a surface plasmon resonance apparatus manufactured by GE Healthcare, the sensor was stabilized at a flow rate of 10 μL/min of a HEPES (4-(2-hydroxyethyl)-1-piperazineethanesulfonic acid) buffer solution (20 mM HEPES-HCl, 150 mM NaCl, pH 7.4) for surface plasmon resonance (SPR), and 70 μL of a mixed aqueous solution of 0.2 M 1-(3-dimethylaminopropyl)-3-ethylcarbodiimide (EDC) and 0.04 M N-hydroxysuccinimide (NHS) was added thereto. Here, the concentration unit M represents mol/L, and the same applies hereinafter. Then, 20 μL of the sample solution of each of the above cyclic peptides diluted to 0.2 g/L with the HEPES buffer solution was supplied to the sensor chip, blocking treatment was subsequently carried out with an ethanolamine solution, and washing was carried out with a sodium hydroxide aqueous solution, whereby immobilization was carried out. However, only for the cyclic peptides 125, 126, and 127, in which the number of lysine residues having an amino group as the immobilizing functional group was zero, the amount of the sample solution to be supplied to the sensor chip was set to 500 μL instead of 20 μL. Further, 70 μL of the mixed aqueous solution of 0.2 M EDC and 0.04 M NHS was added to another flow channel of the same sensor chip without immobilizing the sample, and then blocking treatment and washing treatment were carried out. Hereinafter, the obtained immobilization-treated sensor chip is referred to as an “immobilization-treated sensor chip A”.
After adding human integrin αvβ5 for 10 minutes at 25° C., which was diluted to 30 nM using a HEPES buffer solution to which magnesium chloride was added to 5 mM, in each flow channel of the immobilization-treated sensor chip A prepared in (1) above, the same HEPES buffer solution (containing 5 mM magnesium chloride) was allowed to flow as a running buffer for 30 minutes, and measurement was carried out with Biacore 3000. Then, a regeneration treatment of removing human integrin αvβ5 was carried out by allowing a 0.5 M EDTA aqueous solution to flow through each flow channel for 10 minutes. Further, the above-described measurement process consisting of adding integrin for 10 minutes, allowing a running buffer to flow for 30 minutes, carrying out measurement with Biacore 3000, and carrying out regeneration treatment with 0.5 M EDTA aqueous solution was carried out in the same manner for 100 nM human integrin αvβ5, 300 nM human integrin αvβ5, and 1,000 nM human integrin αvβ5. Dissociation constant between the cyclic peptide and human integrin αvβ5 was calculated from the difference between the value measured by Biacore 3000 in the flow channel immobilized with the cyclic peptide and the value measured by Biacore 3000 in the flow channel unimmobilized with the cyclic peptide, in a case where each concentration of human integrin αvβ5 was allowed to flow, and the integrin binding property was evaluated according to the following evaluation standards. It is preferable that the evaluation result satisfies the evaluation standard A, B, or C.

[1] = Evaluation of molecule stability (alkali treatment, residual rate by LC/MS); assay type: physicochemical; conditions: for Performance evaluation: Stability (residual rate of cyclic peptide after alkali treatment): 500 μM peptide aqueous solution plus equivalent of 1 M sodium hydroxide, 15° C., 3 hours, LC/MS peak area; for Stability (molecule stability, residual rate of the cyclic peptide rank): alkali treatment, residual rate by LC/MS
Method: The molecule stability of the cyclic peptide was evaluated by analyzing the alkali-treated cyclic peptide aqueous solution by liquid chromatography mass spectroscopy (LC/MS).
The alkali treatment was carried out by the following method. A 500 μM cyclic peptide aqueous solution was prepared, an equivalent of 1 M sodium hydroxide aqueous solution was added to this aqueous solution, and the resultant mixture was incubated at 15° C. for 3 hours to obtain an alkali-treated cyclic peptide aqueous solution. The cyclic peptide residual rate was calculated by setting the total area of all peaks of the cyclic peptide before alkali treatment in LC/MS to 100% and determining the proportion of the total area of all peaks in LC/MS of the alkali-treated cyclic peptide aqueous solution, and the molecule stability was evaluated according to the following evaluation standards. It is preferable that the evaluation result satisfies the evaluation standard A, B, or C.
The conditions of the LC/MS used for the evaluation of molecule stability were set as follows. • LC apparatus: Prominence series (pump, column oven, autosampler, detector) (manufactured by Shimadzu Corporation) • MS detector: LC/MS2010EV (manufactured by Shimadzu Corporation) • Column: Cadenza CD-C18, inner diameter 2.0 mm×length 250 mm, particle size: 3 μm (manufactured by Imtakt Corporation) • Eluent A: a solution (pH 3) containing 10 mM ammonium formate as a solute, where the solvent is 100% water. • Eluent B: a solution (pH 3) containing 10 mM ammonium formate as a solute, where the solvent is acetonitrile/water=90/10. • Flow rate: 0.2 mL/min • Injection volume: 4 μL • Gradient: 0% to 30%: Eluent B (0 to 30 minutes), 100%: Eluent B (30 to 40 minutes), 0%: Eluent B (40 to 60 minutes) • Column temperature: 45° C. • Ionization method: electrospray ionization (ESI) positive, ESI negative

[2] = SPR, 25° C., HEPES buffer with 5 mM magnesium chloride, integrin 30-1,000 nM, read-out: Performance evaluation: Binding activity (dissociation constant between the cyclic peptide and human integrin αvβ5)
[3] = surface plasmon resonance, immobilized cyclic peptide, human integrin αvβ5, read-out: Binding activity (integrin binding property, dissociation constant rank)

Chain of human integrin αvβ5 (P06756 31-1048): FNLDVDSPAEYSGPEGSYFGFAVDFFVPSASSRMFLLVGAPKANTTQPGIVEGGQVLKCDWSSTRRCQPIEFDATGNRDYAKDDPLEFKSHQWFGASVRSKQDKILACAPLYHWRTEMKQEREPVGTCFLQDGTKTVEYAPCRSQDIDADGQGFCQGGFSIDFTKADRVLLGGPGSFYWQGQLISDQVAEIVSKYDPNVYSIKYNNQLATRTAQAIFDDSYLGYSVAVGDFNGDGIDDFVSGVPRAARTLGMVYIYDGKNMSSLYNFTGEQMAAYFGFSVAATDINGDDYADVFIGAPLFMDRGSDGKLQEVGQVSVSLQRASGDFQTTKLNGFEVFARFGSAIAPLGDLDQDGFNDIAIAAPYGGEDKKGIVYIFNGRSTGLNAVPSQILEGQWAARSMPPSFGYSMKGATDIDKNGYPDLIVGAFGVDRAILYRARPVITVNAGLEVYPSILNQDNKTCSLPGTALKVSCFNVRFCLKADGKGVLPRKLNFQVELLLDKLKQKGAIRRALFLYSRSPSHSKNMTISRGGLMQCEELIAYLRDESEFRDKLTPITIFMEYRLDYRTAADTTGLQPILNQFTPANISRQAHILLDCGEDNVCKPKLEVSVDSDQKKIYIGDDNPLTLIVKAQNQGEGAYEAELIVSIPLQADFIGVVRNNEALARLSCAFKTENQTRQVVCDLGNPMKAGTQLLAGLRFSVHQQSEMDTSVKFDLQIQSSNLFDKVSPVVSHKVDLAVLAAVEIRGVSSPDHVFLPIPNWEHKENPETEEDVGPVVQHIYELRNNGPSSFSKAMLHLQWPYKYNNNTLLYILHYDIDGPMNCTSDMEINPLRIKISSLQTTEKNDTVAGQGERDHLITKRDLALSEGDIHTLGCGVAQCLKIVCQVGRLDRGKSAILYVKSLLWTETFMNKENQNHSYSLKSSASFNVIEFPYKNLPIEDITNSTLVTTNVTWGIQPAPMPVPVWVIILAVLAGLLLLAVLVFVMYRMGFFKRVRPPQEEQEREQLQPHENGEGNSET
Chain of human integrin αvβ5 (P18084 24-799): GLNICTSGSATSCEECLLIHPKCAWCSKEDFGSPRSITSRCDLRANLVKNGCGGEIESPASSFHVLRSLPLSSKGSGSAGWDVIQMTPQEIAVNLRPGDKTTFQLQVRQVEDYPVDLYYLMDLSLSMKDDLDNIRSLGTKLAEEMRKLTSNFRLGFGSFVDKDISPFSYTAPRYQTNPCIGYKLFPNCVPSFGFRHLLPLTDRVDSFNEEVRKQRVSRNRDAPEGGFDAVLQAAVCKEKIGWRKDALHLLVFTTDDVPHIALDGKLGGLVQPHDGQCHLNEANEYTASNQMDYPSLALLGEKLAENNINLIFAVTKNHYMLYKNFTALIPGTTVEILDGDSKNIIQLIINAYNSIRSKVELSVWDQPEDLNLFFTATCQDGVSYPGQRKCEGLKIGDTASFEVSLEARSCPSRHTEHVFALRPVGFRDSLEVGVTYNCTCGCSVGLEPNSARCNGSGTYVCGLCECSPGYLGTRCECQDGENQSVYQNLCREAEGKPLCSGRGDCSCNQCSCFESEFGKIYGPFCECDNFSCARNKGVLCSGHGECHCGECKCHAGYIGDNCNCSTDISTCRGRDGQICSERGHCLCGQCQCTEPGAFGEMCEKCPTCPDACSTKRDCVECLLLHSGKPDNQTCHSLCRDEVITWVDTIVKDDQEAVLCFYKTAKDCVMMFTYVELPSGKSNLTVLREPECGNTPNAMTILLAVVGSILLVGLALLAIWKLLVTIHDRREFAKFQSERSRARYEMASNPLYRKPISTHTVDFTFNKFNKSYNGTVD

| SMILES | Kd (human integrin αvβ5; [2]) [nM] | Performance evaluation: Stability (residual rate of cyclic peptide after alkali treatment) [1] | Kd (human integrin αvβ5; [3]) [nM] | Stability (molecule stability, residual rate of the cyclic peptide rank) [1] |
| --- | --- | --- | --- | --- |
| C[C@H](NC(=O)[C@H](CCCCN)NC(=O)[C@H](CCCCN)NC(=O)[C@@H](N)CCCCN)C(=O)N[C@H]1CCSCC(=O)NCC[C@@H](C(=O)NCC(=O)O)NC(=O)[C@H](CCCNC(=N)N)NC(=O)[C@H](Cc2ccc(O)cc2)NC(=O)[C@H](CC(N)=O)NC(=O)[C@H](CC(=O)O)NC(=O)CNC(=O)[C@H](CCCNC(=N)N)NC(=O)[C@@H]2CCCN2C(=O)[C@H](CCC(=O)O)NC1=O [Cyclic peptide 40, KKKA-(Hcy)-EPRGDNYR(Dab(acetyl))G] (H-KKKA[hCys]EPRGDNYR[Dab]G-OH; linker 5-14 via X2) | 50 to 100 | A (The residual rate of the cyclic peptide is 70% or more.) |  |  |
| CC[C@H](C)[C@@H]1NC(=O)[C@@H](NC(=O)[C@H](C)NC(=O)[C@H](CCCCN)NC(=O)[C@H](CCCCN)NC(=O)[C@@H](N)CCCCN)CCSCC(=O)NCC[C@@H](C(=O)N[C@@H](C)C(=O)O)NC(=O)[C@H](CCCNC(=N)N)NC(=O)[C@H](Cc2ccccc2)NC(=O)[C@H](CC(N)=O)NC(=O)[C@H](CC(=O)O)NC(=O)CNC(=O)[C@H](CCCNC(=N)N)NC(=O)[C@@H]2CCCN2C1=O [Cyclic peptide 2, KKKA-(Hcy)-IPRGDNFR(Dab(acetyl))A] (H-KKKA[hCys]IPRGDNFR[Dab]A-OH; linker 5-14 via X2) | < 50 | A (The residual rate of the cyclic peptide is 70% or more.) |  |  |
| CC[C@H](C)[C@@H]1NC(=O)[C@@H](NC(=O)CNC(=O)[C@H](CCCCN)NC(=O)[C@H](CCCCN)NC(=O)[C@@H](N)CCCCN)CCNC(=O)CSC[C@@H](C(=O)N[C@@H](C)C(=O)O)NC(=O)[C@H](CCCNC(=N)N)NC(=O)[C@H](Cc2ccccc2)NC(=O)[C@H]([C@@H](C)O)NC(=O)[C@H](CC(=O)O)NC(=O)CNC(=O)[C@H](CCCNC(=N)N)NC(=O)[C@@H]2CCCN2C1=O [Cyclic peptide 138, KKKG(Dab(acetyl))IPRGDTFR(C)A] (H-KKKG[Dab]IPRGDTFRCA-OH; linker 5-14 via X1) |  |  | 50 to 100 | C (The residual rate of the cyclic peptide is 30% or more and less than 50%.) |
| CC(C)[C@@H]1NC(=O)[C@@H](NC(=O)[C@H](C)NC(=O)[C@H](CCCCN)NC(=O)[C@H](CCCCN)NC(=O)[C@@H](N)CCCCN)CCNC(=O)CSC(C)(C)[C@@H](C(=O)N[C@@H](C)C(=O)O)NC(=O)[C@H](C)NC(=O)[C@H](Cc2ccccc2)NC(=O)[C@H]([C@@H](C)O)NC(=O)[C@H](CC(=O)O)NC(=O)CNC(=O)[C@H](CCCNC(=N)N)NC(=O)[C@@H]2CCCN2C1=O [Cyclic peptide 136, KKKA(Dab(acetyl))VPRGDTFA-(Pen)-A] (H-KKKA[Dab]VPRGDTFA[Pen]A-OH; linker 5-14 via X1) |  |  | < 50 | A (The residual rate of the cyclic peptide is 70% or more.) |
| C[C@@H]1NC(=O)[C@H](Cc2ccccc2)NC(=O)[C@H]([C@@H](C)O)NC(=O)[C@H](CC(=O)O)NC(=O)CNC(=O)[C@H](CCCNC(=N)N)NC(=O)[C@@H]2CCCN2C(=O)[C@H](CC(=O)O)NC(=O)[C@@H](NC(=O)[C@H](CCCCN)NC(=O)[C@H](CCCCN)NC(=O)[C@@H](N)CCCCN)CCSCC(=O)NCC[C@@H](C(=O)O)NC1=O [Cyclic peptide 144, KKK-(Hcy)-DPRGDTFA(Dab(acetyl))] (H-KKK[hCys]DPRGDTFA[Dab]-OH; linker 4-13 via X2) |  |  | < 50 | A (The residual rate of the cyclic peptide is 70% or more.) |
| CC[C@H](C)[C@@H]1NC(=O)[C@@H](NC(=O)[C@H](CCCCN)NC(=O)[C@H](CCCCN)NC(=O)[C@@H](N)CCCCN)CNC(=O)CSCC[C@@H](C(=O)O)NC(=O)[C@H](CCCNC(=N)N)NC(=O)[C@H](Cc2ccccc2)NC(=O)[C@H](CC(N)=O)NC(=O)[C@H](CC(=O)O)NC(=O)CNC(=O)[C@H](CCCNC(=N)N)NC(=O)[C@@H]2CCCN2C1=O [Cyclic peptide 12, KKK(Dap(acetyl))IPRGDNFR-(Hcy)] (H-KKK[Dap]IPRGDNFR[hCys]-OH; linker 4-13 via X1) | 50 to 100 | B (The residual rate of the cyclic peptide is 50% or more and less than 70%.) |  |  |
| C[C@H](NC(=O)[C@H](CCCCN)NC(=O)[C@H](CCCCN)NC(=O)[C@@H](N)CCCCN)C(=O)N[C@H]1CCSCC(=O)NCC[C@@H](C(=O)N[C@@H](CC(=O)O)C(=O)O)NC(=O)[C@H](CCCNC(=N)N)NC(=O)[C@H](Cc2ccccc2)NC(=O)[C@H](CC(N)=O)NC(=O)[C@H](CC(=O)O)NC(=O)CNC(=O)[C@H](CCCNC(=N)N)NC(=O)[C@@H]2CCCN2C(=O)[C@H](CCC(=O)O)NC1=O [Cyclic peptide 34, KKKA-(Hcy)-EPRGDNFR(Dab(acetyl))D] (H-KKKA[hCys]EPRGDNFR[Dab]D-OH; linker 5-14 via X2) | < 50 | A (The residual rate of the cyclic peptide is 70% or more.) |  |  |
| C[C@H](NC(=O)[C@@H]1CCNC(=O)CSCC[C@H](NC(=O)CNC(=O)[C@H](CCCCN)NC(=O)[C@H](CCCCN)NC(=O)[C@@H](N)CCCCN)C(=O)N[C@@H](CCc2ccc(O)cc2)C(=O)N2CCC[C@H]2C(=O)N[C@@H](CCCNC(=N)N)C(=O)NCC(=O)N[C@@H](CC(=O)O)C(=O)N[C@@H]([C@@H](C)O)C(=O)N[C@@H](Cc2ccccc2)C(=O)N[C@@H](CCCNC(=N)N)C(=O)N1)C(=O)O [Cyclic peptide 68, KKKG-(Hcy)-(HmY)-PRGDTFR(Dab(acetyl))A] (H-KKKG[hCys][hTyr]PRGDTFR[Dab]A-OH; linker 5-14 via X2) |  | A (The residual rate of the cyclic peptide is 70% or more.) |  |  |
| CC[C@H](C)[C@@H]1NC(=O)[C@@H](NC(=O)CNC(=O)[C@H](CCCCN)NC(=O)[C@H](CCCCN)NC(=O)[C@@H](N)CCCCN)CCSCC(=O)NCC[C@@H](C(=O)N[C@@H](C)C(=O)O)NC(=O)[C@H](CCCNC(=N)N)NC(=O)[C@H](Cc2ccccc2)NC(=O)[C@H](CCO)NC(=O)[C@H](CC(=O)O)NC(=O)CNC(=O)[C@H](CCCNC(=N)N)NC(=O)[C@@H]2CCCN2C1=O [Cyclic peptide 73, KKKG-(Hcy)-IPRGD-(HmS)-FR(Dab(acetyl))A] (H-KKKG[hCys]IPRGD[hSer]FR[Dab]A-OH; linker 5-14 via X2) |  | A (The residual rate of the cyclic peptide is 70% or more.) |  |  |
